# Read-outs that look alike come from different tables or passages of the source.
# How the values were obtained:
# [1] = target: MAPKAPK2 (MK-2) (Homo sapiens, UniProt P49137); test: Determination of MK-2 IC50 (HSP-peptide phosphorylation, anion exchange resin capture assay); assay type: biochemical
# In short: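 Radiometric peptide assay: 15 nM p38α-activated MK-2, HSP-peptide, 0.03 mM ATP with [γ33P]ATP, 2% DMSO, pH 7.5, 30° C for 30 min; unreacted ATP removed on AG 1×8 resin before counting. Six concentrations in ten-fold steps, each in triplicate, gave IC50 in μM.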
# [2] = target: MK-3 (Homo sapiens, UniProt Q16644); test: MK-3 inhibition IC50 (similar method to MK-2, with appropriate modifications); assay type: biochemical; conditions: read-out: MK-3 Avg. IC50
# Sequence of MK-3 (Q16644 whole entry, species assumed): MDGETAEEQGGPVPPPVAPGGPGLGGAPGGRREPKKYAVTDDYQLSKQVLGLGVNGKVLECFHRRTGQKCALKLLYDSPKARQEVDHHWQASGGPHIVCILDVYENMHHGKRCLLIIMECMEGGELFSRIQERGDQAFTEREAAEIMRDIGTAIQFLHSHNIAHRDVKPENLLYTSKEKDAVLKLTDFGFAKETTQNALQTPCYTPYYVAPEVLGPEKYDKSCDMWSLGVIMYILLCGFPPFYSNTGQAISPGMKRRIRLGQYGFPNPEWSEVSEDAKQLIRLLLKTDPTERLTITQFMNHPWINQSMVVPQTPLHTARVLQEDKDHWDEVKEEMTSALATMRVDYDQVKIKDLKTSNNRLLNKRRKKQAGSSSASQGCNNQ
# [3] = Table 1, phenoxypyrazole MK-2 inhibitors, read-out: MK-2 Avg, IC50
# [4] = Table 1, phenoxypyrazole MK-2 inhibitors
# [5] = Table 2, pyrazolylpyrazole MK-2 inhibitors, read-out: MK-2 Avg. IC50
# [6] = Table 2, pyrazolylpyrazole MK-2 inhibitors
# Sequence of MAPKAPK2 (MK-2) (P49137 whole entry, species assumed): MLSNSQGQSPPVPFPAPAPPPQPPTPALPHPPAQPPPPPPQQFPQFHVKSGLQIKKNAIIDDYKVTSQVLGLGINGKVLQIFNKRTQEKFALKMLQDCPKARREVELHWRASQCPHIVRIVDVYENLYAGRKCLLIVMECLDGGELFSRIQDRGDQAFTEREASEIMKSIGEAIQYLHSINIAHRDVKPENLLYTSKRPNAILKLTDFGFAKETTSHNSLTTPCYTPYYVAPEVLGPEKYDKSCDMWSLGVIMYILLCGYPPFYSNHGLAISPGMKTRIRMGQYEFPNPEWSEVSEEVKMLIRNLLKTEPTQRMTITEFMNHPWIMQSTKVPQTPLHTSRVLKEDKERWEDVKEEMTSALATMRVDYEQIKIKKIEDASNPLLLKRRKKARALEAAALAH
SMILES,IC50 ([1]; read-out: MK-2 Avg. IC50) [µM],IC50 [2] [µM],"IC50 [1, 3] [µM]","IC50 [2, 4] [µM]",other results
O=C(O)c1c2c(nn1CCCNCCc1ccc(Cl)cc1)-c1ccncc1CC2 [Example 56],0.551,7.86,,,
COc1cc2c(cc1-c1cccc(S(C)(=O)=O)c1)-c1nn(CCCNC(=O)OC(C)(C)C)c(C(=O)O)c1CC2 [Example 57],,,143,> 200,
O=C(O)c1c2c(nn1CCCNCCc1ccc(Cl)s1)-c1ccncc1CC2 [Example 57],0.559,8.85,,,
COc1cc2c(cc1-c1cccn1C(=O)OC(C)(C)C)-c1nn(CCCNC(=O)OC(C)(C)C)c(C(=O)O)c1CC2 [Example 58],,,148,> 200,
N#Cc1ccc(CCCNCCCn2nc3c(c2C(=O)O)CCc2cnccc2-3)cc1 [Example 58],0.561,44.3,,,
CC1Cc2cc(O)ccc2-c2n[nH]c(C(=O)O)c21 (centres unmarked) [Example 59],,,148,> 200,
CCOC(=O)c1c2c(nn1CCNC(=O)OC(C)(C)C)-c1cnn(C(c3ccccc3)(c3ccccc3)c3ccccc3)c1CC2 [Example 59],,,,,"IC50 [1, 5]: ≥ 200 µM; IC50 [2, 6]: ≥ 200 µM"
Cc1ccc(C(C)CCNCCCn2nc3c(c2C(=O)O)CCc2cnccc2-3)o1 (centres unmarked) [Example 59],0.574,22.5,,,
C=CCC1Cc2c(C(=O)O)n[nH]c2-c2ccc(O)cc21 (centres unmarked) [Example 60],,,148,> 200,
O=C(O)c1c2c(nn1CCCNCCc1ccc(-c3csc4ccccc34)cc1)-c1ccncc1CC2 [Example 60],0.575,15.6,,,
COCCOCOc1ccc2c(c1)CCc1c-2n[nH]c1C(=O)O [Example 61],,,150,> 200,
CC(=O)c1ccc(CCCNCCCn2nc3c(c2C(=O)O)CCc2cnccc2-3)cc1 [Example 63],0.603,12.6,,,
COC(=O)c1[nH]nc2c1CCc1cc(O)c(O)cc1-2 [Example 64],,,154,> 200,
NCCCn1nc2c(c1C(=O)O)CCc1cnccc1-2 [Example 64],0.62,22.8,,,
CS(=O)(=O)c1ccc(CCCNCCCn2nc3c(c2C(=O)O)CCc2cnccc2-3)cc1 [Example 65],0.622,26.1,,,
Cn1nc(C(N)=O)c2c1-c1ccc(O)cc1CC2 [Example 65],,,158,> 200,
CC(C)(C)OC(=O)NCCCn1nc2c(c1C(N)=O)CCc1[nH]ncc1-2 [Example 66],,,,,"IC50 [1, 5]: ≥ 200 µM; IC50 [2, 6]: ≥ 200 µM"
COc1ccccc1-c1cc2c(cn1)CCc1c-2nn(CCCN)c1C(=O)O [Example 66],0.632,6.87,,,
COc1cc2c(cc1-c1ccncc1)-c1nn(CCCNC(=O)OC(C)(C)C)c(C(=O)O)c1CC2 [Example 67],,,165,> 200,
N#CCCn1nc(C(N)=O)c2c1-c1cn[nH]c1CC2 [Example 67],,,,,"IC50 [1, 5]: ≥ 200 µM; IC50 [2, 6]: ≥ 200 µM"
NCc1cccc(-c2ccc(CCNCCCn3nc4c(c3C(=O)O)CCc3cnccc3-4)cc2)c1 [Example 67],0.663,10,,,
CC1Cc2cc(O)ccc2-c2n[nH]c(C(N)=O)c21 (centres unmarked) [Example 68],,,173,196,
NC(=O)c1[nH]nc2c1CCc1c-2cnn1COCc1ccccc1 [Example 68],,,,,"IC50 [1, 5]: ≥ 200 µM; IC50 [2, 6]: ≥ 200 µM"
NCCn1nc2c(c1C(=O)O)CCc1cnccc1-2 [Example 68],0.706,43.1,,,

SMILES,IC50 ([1]; read-out: MK-2 Avg. IC50) [µM],IC50 [2] [µM],"IC50 [1, 3] [µM]","IC50 [2, 4] [µM]",other results
CCOC(=O)c1[nH]nc2c1CCc1c-2cnn1CCO [Example 69],,,,,"IC50 [1, 5]: ≥ 200 µM; IC50 [2, 6]: ≥ 200 µM"
CNC(=O)c1[nH]nc2c1CCc1cc(O)ccc1-2 [Example 69],,,176,> 200,
O=C(O)c1c2c(nn1CCCNCCc1ccc([N+](=O)[O-])cc1)-c1ccncc1CC2 [Example 69],0.765,11.9,,,
CCOC(=O)c1[nH]nc2c1CCc1cc(O)ccc1-2 [Example 70],,,176,> 200,
NC(=O)c1[nH]nc2c1CCc1c-2cnn1CCO [Example 70],,,,,"IC50 [1, 5]: ≥ 200 µM; IC50 [2, 6]: ≥ 200 µM"
O=C(O)c1c2c(nn1CCCNCCc1ccc(-c3ccccc3C(F)(F)F)cc1)-c1ccncc1CC2 [Example 70],0.801,44.8,,,
Cn1nc2c(c1C(N)=O)CCc1cc(O)ccc1-2 [Example 71],,,179,> 200,
O=C(O)c1nn(-c2ccccc2)c2c1CCc1[nH]ncc1-2 [Example 71],,,,,"IC50 [1, 5]: ≥ 200 µM; IC50 [2, 6]: ≥ 200 µM"
O=C1NC(CO)Cn2nc3c(c21)CCc1cnccc1-3 (centres unmarked) [Example 71],0.825,35,,,
CC(C)(C)OC(=O)NCCCn1nc2c(c1C(=O)O)CCc1cc(O)ccc1-2 [Example 72],,,181,> 200,
CCOC(=O)c1c2c(nn1CC(F)(F)F)-c1cn[nH]c1CC2 [Example 72],,,,,"IC50 [1, 5]: ≥ 200 µM; IC50 [2, 6]: ≥ 200 µM"
Cc1ccc(CCNCCCn2nc3c(c2C(=O)O)CCc2cnccc2-3)cc1 [Example 72],0.89,17.2,,,
CCOC(=O)c1nn(CC(F)(F)F)c2c1CCc1c-2cnn1C(c1ccccc1)(c1ccccc1)c1ccccc1 [Example 73],,,,,"IC50 [1, 5]: ≥ 200 µM; IC50 [2, 6]: ≥ 200 µM"
O=C(NCCO)c1[nH]nc2c1CCc1cc(O)ccc1-2 [Example 73],,,184,> 200,
O=C1NC(CNCCc2cccs2)Cn2nc3c(c21)CCc1cnccc1-3 (centres unmarked) [Example 73],0.924,27.8,,,
C=CCn1nc2c(c1C(=O)OCC)CCc1c-2cnn1C(c1ccccc1)(c1ccccc1)c1ccccc1 [Example 74],,,,,"IC50 [1, 5]: ≥ 200 µM; IC50 [2, 6]: ≥ 200 µM"
CCOc1ccc(CCNCCCn2nc3c(c2C(=O)O)CCc2cnccc2-3)cc1 [Example 74],0.931,34.8,,,
C=CCn1nc2c(c1C(N)=O)CCc1cc(OCOCCOC)ccc1-2 [Example 80],,,> 200,> 200,
CCOC(=O)c1nn(CC(F)(F)F)c2c1CCc1[nH]ncc1-2 [Example 80],,,,,"IC50 [1, 5]: ≥ 200 µM; IC50 [2, 6]: 124 µM"
O=C(O)c1c2c(nn1CCCNCCC(c1ccccc1)c1ccccc1)-c1ccncc1CC2 [Example 80],1.18,30.3,,,
COc1ccc(CCNCCCn2nc3c(c2C(=O)O)CCc2cnccc2-3)cc1OC [Example 100],2.33,48.1,,,
O=C(O)CCn1nc(C(=O)O)c2c1-c1cn[nH]c1CC2 [Example 100],,,,,"IC50 [1, 5]: ≥ 200 µM; IC50 [2, 6]: ≥ 200 µM"
CCOC(=O)Cn1nc2c(c1C(=O)OCC)CCc1[nH]ncc1-2 [Example 113],,,,,"IC50 [1, 5]: ≥ 200 µM; IC50 [2, 6]: ≥ 200 µM"
NCCCCn1nc2c(c1C(=O)O)CCc1cnccc1-2 [Example 113],3.01,174,,,

SMILES,IC50 ([1]; read-out: MK-2 Avg. IC50) [µM],IC50 [2] [µM],"IC50 [1, 3] [µM]","IC50 [2, 4] [µM]",other results
O=C(O)c1n[nH]c2c1CC(c1ccccc1)c1cc(O)ccc1-2 (centres unmarked) [Example 113],,,> 200,> 200,
O=C1NCCCn2nc3c(c21)CCc1cnc(Nc2ccccc2)cc1-3 [Example 131],4.68,25.2,,,
CCOC(=O)c1c2c(nn1C)-c1ccc(O)cc1CC2 [Example 157],,,> 200,> 200,
O=C1NCCn2nc3c(c21)CCc1cnc(N2Cc4ccccc4C2)cc1-3 [Example 157],9.58,45.4,,,
COc1ccc(-n2nc(C(N)=O)c3c2-c2ccc(O)cc2CC3)cc1 [Example 158],,,> 200,> 200,
Nc1ccc(NCCCn2nc3c(c2C(=O)O)CCc2cnccc2-3)cc1 [Example 158],9.73,133,,,
COC(=O)c1nn(-c2ccc(Cl)cc2)c2c1CCc1cc(OC)ccc1-2 [Example 159],,,> 200,> 200,
O=C1NCCn2nc3c(c21)CCc1cnc(N2CCC(O)CC2)cc1-3 [Example 159],9.84,22.8,,,
COc1ccc2c(c1)CCc1c(C(=O)O)nn(-c3ccc(Cl)cc3)c1-2 [Example 160],,,> 200,> 200,
COc1ccc2c(c1)CCc1c(C(=O)NCCCN(C)C)nn(-c3ccc(Cl)cc3)c1-2 [Example 161],,,> 200,> 200,
COc1ccc(-n2nc(C(=O)O)c3c2-c2ccc(OC)cc2CC3)cc1 [Example 162],,,> 200,> 200,
COC(=O)c1nn(-c2ccc(OC)cc2)c2c1CCc1cc(OC)ccc1-2 [Example 163],,,> 200,> 200,
COC(=O)c1nn(-c2ccc(S(C)(=O)=O)cc2)c2c1CCc1cc(OC)ccc1-2 [Example 164],,,> 200,> 200,
COc1ccc2c(c1)CCc1c(C(=O)O)nn(-c3ccc(S(C)(=O)=O)cc3)c1-2 [Example 165],,,> 200,> 200,
COc1ccc2c(c1)CCc1c(C(=O)O)nn(-c3ccc(S(N)(=O)=O)cc3)c1-2 [Example 166],,,> 200,> 200,
CCOC(=O)c1[nH]nc2c1CCc1cc(OC)c(OC)cc1-2 [Example 167],,,> 200,> 200,
CCOC(=O)c1nn(-c2ccccc2)c2c1CCc1cc(OC)c(OC)cc1-2 [Example 168],,,> 200,> 200,
COc1cc2c(cc1OC)-c1n[nH]c(C(=O)n3ccnc3)c1CC2 [Example 169],,,> 200,> 200,
COc1cc2c(cc1OC)-c1n[nH]c(C(=O)NN)c1CC2 [Example 170],,,> 200,> 200,
CCN(CC)CCNC(=O)c1nn(-c2ccc(Cl)cc2)c2c1CCc1cc(OC)ccc1-2 [Example 171],,,> 200,> 200,
O=C1NCCn2nc3c(c21)CCc1cnc(-c2cccc4cccnc24)cc1-3 [Example 171],14,74.8,,,
COC(=O)c1nn(-c2ccc(S(N)(=O)=O)cc2)c2c1CCc1cc(OC)ccc1-2 [Example 172],,,> 200,> 200,
